Here are results for three compounds from patent publication EP0430991B1, “REAGENT FOR USE IN LD-1 ASSAY” (BOEHRINGER MANNHEIM CORPORATION, priority 1988, dated 1990).

For experiment [1], the target named is lactate dehydrogenase isoenzyme LD-1, H(4) (Homo sapiens, UniProt P07195). As to the kind of experiment: biochemical. The settings on record: for LD-1 ISOENZYME REAGENT (Recovery): Lithium L-Lactate 90 mM, pH 9.6; for activity at 240000 µM: R1: guanadine thiocyanate 240 mM, Lithium L-Lactate 90mM, Tris 112.6 mM, pH 9.5, 37 degrees C. On the procedure:
(§1) A. Materials: • 1. Reagent I. contains Lithium L-Lactate (90mM), guanadine thiocyanate (240 mM), Tris buffer (112.6 mM) at pH 9.5. • 2. Reagent II. contains Na(2)SO(4) (40 mM) and NAD (53.76 mM). Reaction mixture is a combination of 2.0 ml of R-1, 0.5 ml of R-2 which has a final reaction pH of 8.9 • 3. LD isoenzymes. Pure LD-1, LD-2, LD-3 and LD-5 individual isoenzymes were obtained from Aalto of Escondido, CA. Patient serum samples were obtained from a local hospital. B. Procedures Using Automated Analyzer Tests were performed on a Boehringer Mannheim/Hitachi 705 analyzer. The analyzer was given the following parameters: Assay Code: Rate - 20-26 (equivalent to 84.62 seconds to 198.70 seconds) Sample Volume: 12 µl R1 Volume: 400 µl R2 Volume: 100 µl Wavelength 1: 376 nm Wavelength 2: 340 nm Temperature: 37 degrees C. Factor: -10470 C. Manual Procedure Instrument: Spectrophotometer Temperature: 37 degrees C. Wavelength: 340 nm 1. Zero spectrophotometer with distilled or deionized water (DI HOH) 2. Pipette the following reagents in a cuvette:
(§2) 3. Mix and equilibrate sample to 37 degrees C. 4. Pipette and add 0.5 ml of R2 into sample test tube. Mix and measure optical density change at 340 nm for about 6 minutes. Calculate A/min. from 2 to 4 minutes. This is A/min for the sample. 5. Repeat steps 2 to 4 for the blank using 0.060 ml DI HOH as sample. This is A/min. for the blank. 6. Calculate for U/L (U/L = units of LDH activity per liter) U/L = (A/min Sample - A/min blank) x 1000 x 2.56 6.22 x light path x 0.06 [formula] D. Protocol for the Electrophoretic Analysis • 1. About 630 to 1,000 µl of individual LD-1, LD-2, LD-3, LD-4, LD-5 and abnormal patient serum samples were used in the electrophoretic analysis. • 2. 12 µl sample was added to […] R1 and incubated for 4 minutes at 37 degrees C to inhibit LD-2 to LD-5 to achieve an inhibited sample. • 3. Another 12 µl sample was added to 400 ul of Tris buffer (112.6 mM, pH at 8.9-9.0) and incubated for 4 minutes at 37 degrees C to achieve a control sample. • 4. Both the inhibited and control samples were applied to the Beckman Paragon Gel and the electrophoresis was run according to the Beckman procedure specified for the gel using a Beckman Paragon Electrophoresis instrument from Beckman Instrument. E. Method for Comparison Sixty-eight patient samples with LD-1 activity from 30 to 800 U/L were tested to compare the selectivity of R1 with the immunochemical separation method Roche's Isomune LD-1 reagent was employed for the immunochemical separation. F. Experimental Results 1. LD isoenzymes were tested using the Automated Analyzer procedure described above. […] LD-1 isoenzyme was tested at several concentrations. […]
(§3) A. Materials • 1. Reagent I: contains Lithium L-Lactate (90 mM), guanidine HCl (240 mM), sodium thiocyanate (240 mM) Tris buffer (119 mM) and Na(2)Co(3) (12.5 mM) at pH 9.6. • 2. Reagent II: contains Na(2)SO(4) (40 mM) and NAD (53.76 mM). Reaction mixture is a combination of 2.0 ml of R-1, 0.5 ml of R-2 which has final reaction pH at 8.9. • 3. LD isoenzymes: Same as described in Example 1. B. Procedures using Automated Analyzer Same as described in Example 1. C. Manual Procedure Same as described in Example 1. […]
(§4) A. Materials • 1. Reagent I: contains Lithium L-Lactate (90 mM), guanidine-HCL Na(2)Co(3) (12.5mM), Tris buffer (119 mM) at pH 9.6. • 2. Reagent II: contains Na(2)SO(4) (40 mM) and NAD (53.76 Mm). Reaction mixture is a combination of 2.0 ml of R-1, 0.5 ml of R-2 which has final reaction reaction pH at 8.9. • 3. LD isoenzymes: pure LD-1, LD-2, LD-3 and LD-5 individual isoenzymes are obtained from Aalto, Escondido, CA. Patient serum samples are obtained from a local hospital. B. Procedures using Automated Analyzer Same as described in Example 1. C. Manual Procedure Same as described in Example 1. […] Table
(§5) A. Materials • 1. Reagent I: contains Lithium L-Lactate (90 mM), NaSCN (240 mM) Na(2)Co(3) (12.5 mM), Tris buffer (119 mM) at pH 9.6. • 2.

In experiment [2] the target is T1, lactate dehydrogenase isoenzyme LD-2, H(3)M (Homo sapiens, UniProt P00338+P07195).
T1 construct: purchased Aalto, Escondido, CA
The experiment is described as follows: LD isoenzyme inactivation, automated analyzer rate assay (lactate/NAD, 340 nm). It counts as biochemical. The settings on record: for LD-1 ISOENZYME REAGENT (Recovery): Lithium L-Lactate 90 mM, pH 9.6. Here is the method:
as §1, §2, §3, §4, §5

Experiment [3] deals with T2, lactate dehydrogenase isoenzyme LD-3, H(2)M(2) (Homo sapiens, UniProt P00338+P07195).
T2 construct: purchased Aalto, Escondido, CA
Described as above. It counts as biochemical. The settings on record: Lithium L-Lactate 90 mM, pH 9.6. Here is the method: as §1, §2, §3, §4, §5

Experiment [4] deals with lactate dehydrogenase isoenzyme LD-5, M(4) (Homo sapiens, UniProt P00338). The description is as above. It counts as biochemical. The settings on record: for LD-1 ISOENZYME REAGENT (Recovery): Lithium L-Lactate 90 mM, pH 9.6. Here is the method:
as §1, §2, §3, §4, §5

Experiment [5] has as its system LD-2,3,4,5 (sample contains LD(2), LD(3), LD(4), and LD(5) isoenzymes with 43% of LD(4)). The description is as above. It counts as biochemical, human. The settings on record: Lithium L-Lactate 90 mM, pH 9.6. On the procedure:
A. Materials: • 1. […] LD isoenzymes. […] Patient serum samples were obtained from a local hospital. […] Factor: -10470 C. Manual Procedure Instrument: Spectrophotometer Temperature: 37 degrees C. Wavelength: 340 nm 1. […] Pipette the following reagents in a cuvette:
3. Mix and equilibrate sample to 37 degrees C. 4. […] Calculate A/min. from 2 to 4 minutes. This is A/min for the sample. 5. […] This is A/min. for the blank. 6. […] F. Experimental Results 1. […] LD-1 isoenzyme was tested at several concentrations. […]
A. Materials • 1. […] LD isoenzymes: Same as described in Example 1. […] C. Manual Procedure Same as described in Example 1. […]
A. Materials • 1. […] Patient serum samples are obtained from a local hospital. […] C. Manual Procedure Same as described in Example 1. […] Table

Experiment [6] addresses lactate dehydrogenase isoenzyme LD-4, HM(3) (Homo sapiens, UniProt P00338+P07195). The description is as above. It counts as biochemical. The settings on record: R1: guanadine thiocyanate 240 mM, Lithium L-Lactate 90mM, Tris 112.6 mM, pH 9.5; 37 degrees C; read-out: Activity After R1 Treatment (% of Total LDH Reagent). On the procedure: as §1
3. Mix and equilibrate sample to 37 degrees C. 4. Pipette and add 0.5 ml of R2 into sample test tube. Mix and measure optical density change at 340 nm for about 6 minutes. Calculate A/min. from 2 to 4 minutes. This is A/min for the sample. 5. Repeat steps 2 to 4 for the blank using 0.060 ml DI HOH as sample. This is A/min. for the blank. 6. […]

Setting [7] is: Reagent I: guanidine-HCL (concentration not given), no thiocyanate.
Setting [8] is: R1: guanadine thiocyanate 240 mM, Lithium L-Lactate 90mM, Tris 112.6 mM, pH 9.5, 37 degrees C, read-out: Activity After R1 Treatment (% of Total LDH Reagent).
Where [9] appears, read: Reagent I: NaSCN 240 mM, no guanidine.

Where a name gives a salt, the structure may show the parent alone. Read-outs that look alike come from different tables or passages of the source.

Take `N=C(N)N` [GUANIDINE HCL, guanidine HCl]: the “LD-1 ISOENZYME REAGENT (Recovery)” value is on record as 202 (110 %) in experiment [1] (LD-1 sample 1X, Reagent I: guanidine-HCL (concentration not given), no thiocyanate); 394 (107 %) in experiment [1] (LD-1 sample 2X, Reagent I: guanidine-HCL (concentration not given), no thiocyanate); 759 (107 %) in experiment [1] (LD-1 sample 4X, Reagent I: guanidine-HCL (concentration not given), no thiocyanate); 1123 (106 %) in experiment [1] (LD-1 sample 6X, Reagent I: guanidine-HCL (concentration not given), no thiocyanate); 826 (106 %) in experiment [2] (setting [7]); 1323 (102 %) in experiment [3] (setting [7]). The figures for the “LD-1 ISOENZYME REAGENT (Recovery)” value in experiment [4] (setting [7]) and in experiment [5] (setting [7]) were 159 ( 9.50%) and 1102 ( 81.2 %), respectively.
In the case of `N=C(N)N` [guanadine thiocyanate], the activity at 240000 µM came out at 98% in experiment [1] (pH 9.5, read-out: Activity After R1 Treatment (% of Total LDH Reagent), LD-1 sample 1x); 100% in experiment [1] (pH 9.5, read-out: Activity After R1 Treatment (% of Total LDH Reagent), LD-1 sample 2x); 100% in experiment [1] (pH 9.5, read-out: Activity After R1 Treatment (% of Total LDH Reagent), LD-1 sample 4x); 102% in experiment [1] (pH 9.5, read-out: Activity After R1 Treatment (% of Total LDH Reagent), LD-1 sample 6x); 1.1% in experiment [2] (setting [8]); 0% in experiment [4] (setting [8]). In experiment [6], the activity at 240000 µM amounted to 0%.
In the case of sodium thiocyanate [NaSCN], the “LD-1 ISOENZYME REAGENT (Recovery)” value in experiment [1] (LD-1 sample 1X, Reagent I: NaSCN 240 mM, no guanidine) was 252 (138 %); in experiment [1] (LD-1 sample 2X, Reagent I: NaSCN 240 mM, no guanidine), 499 (136 %); in experiment [1] (LD-1 sample 4X, Reagent I: NaSCN 240 mM, no guanidine) it was 964 (134 %); in experiment [1] (LD-1 sample 6X, Reagent I: NaSCN 240 mM, no guanidine), 1421 (134 %); in experiment [2] (setting [9]), 905 (116 %); in experiment [3] (setting [9]), 1093 ( 85 %). The results for the “LD-1 ISOENZYME REAGENT (Recovery)” value in experiment [4] (setting [9]) and in experiment [5] (setting [9]) were 44 ( 2.6%) and 725 ( 53 %), respectively.
